{"source": "patent US12016851B2", "about": "“Modified release pharmaceutical formulations comprising deferiprone” (Chiesi Farmaceutici S.p.A., priority 2022, dated 2024)", "origin": "cited, not measured here", "key": {"[1]": {"conditions": "in vivo"}, "[2]": {"conditions": "monotherapy; Maggio 2002, Galanello 2006"}}, "data": [{"smiles": "Cc1c(O)c(=O)ccn1C", "note": "[Deferiprone, 3-hydroxy-1,2-dimethylpyridin-4-one]", "values": [{"measurement": "half-life", "setting": "[1]", "result": "2 to 3", "unit": "h"}, {"measurement": "improving myocardial siderosis and cardiac function", "setting": "[2]", "result": "superior to deferoxamine monotherapy"}]}]}
